Experimental findings from US7572438B2, “Mutant having uracil phosphoribosyl transferase activity” (Transgene S.A., priority 1998, dated 2009) are described below.

In one data set the test system is PANC-1. The data set can be described thus: LD50 of 5-FC and 5-FU on adenovirus-infected PANC-1 cells (MOI 5). It is filed as cell-based, human. Conditions: PANC-1, mock-infected, 6 days. The protocol: (§1) The LD50 values for 5-FC and 5-FU are determined vis-a-vis the three human tumor cell lines infected with the different viruses (Ad null, Ad.CMV-FCY1, Ad.CMV-FUR1A1Δ105 and Ad.CMV-FCU1) or coinfected with the adenoviruses expressing the FCY1 and FUR1Δ105 genes. The cells are infected at an MOI of 5 and then cultured in the presence of different concentrations of 5-FC and 5-FU. After 6 days of culture, the viability of the cells is determined using trypan blue. The LD50 values listed in Table 6 are the means of four counts.

For the next data set, the system named is SK-BR-3. The data set can be described thus: LD50 of 5-FC and 5-FU on adenovirus-infected SK-BR-3 cells (MOI 5). Format: cell-based, human. To be noted: SK-BR-3, mock-infected, 6 days. On the procedure: as §1
The subject of a further data set is SW480. In words: LD50 of 5-FC and 5-FU on adenovirus-infected SW480 cells (MOI 5). Format: cell-based, human. To be noted: 6 days. The protocol: as §1
In data set [1] the test system is B16(F0) cells. In words: Sensitivity of transfected B16(F0) clones to 5-FC and 5-FU (LD50, trypan blue). It is filed as cell-based, mouse. To be noted: 6 days with drug.
Protocol: The sensitivities of the different clones to 5-FC and 5-FU are also tested after incubating in the presence of the drugs for 6 days. The following values are the means of four counts (using trypan blue) of cell mortality.
The test system of data set [2] is B16(F0) cells. In words: Bystander effect: mixtures of untransfected and pCI-neoFCU1-transfected B16(F0) clones with 5-FC. Format: cell-based, mouse. Conditions: B16/B16 pCI-neoFCU1 100%/0%, 4 days. The protocol: These clone mixtures were then tested in the presence of different concentrations of 5-FC. Cell mortality (using trypan blue) is assessed after culturing for 4 days in the presence of 5-FC.

On to `O=c1[nH]cc(F)c(=O)[nH]1` [5-FU, 5-fluorouracil], for which the “LD50 (μM) 5-FU, Mock” value in the data set on PANC-1 came out at 0.3 µM; with SK-BR-3, 0.1 µM; in the data set on SW480, 0.5 µM.

For `Nc1nc(=O)[nH]cc1F` [5-FC, 5-fluorocytosine], the “LD50 for 5-FC, untransfected cells” value with B16(F0) cells [1] came to 1000 µM. Besides, the “LD50 (μM) + 5-FC” value in the data set with B16(F0) cells [2] worked out at 5000 µM. In addition, the figures for the “LD50 (μM) 5-FC, Mock” value in the data set on PANC-1, in the data set with SK-BR-3 and in the data set on SW480 were 10,000 μM, 5000 µM and 5000 µM, respectively.
